Measurements as given in ChEMBL document CHEMBL1145809, “Novel (2E,4E,6Z)-7-(2-alkoxy-3,5-dialkylbenzene)-3-methylocta-2,4,6-trienoic acid retinoid X receptor modulators are active in models of type 2 diabetes” (J Med Chem, 2003).
Active and inactive are the calls of the source. No cut-off for these calls is given here.

Legend:
Rattus norvegicus [1] = species: Rattus norvegicus; assay: Effect on triglyceride level in male Dawley rats at 24 hr r; assay type: functional
Mus musculus [2] = assay: In vivo hypoglycemic activity compared to BRL-46953 as reduced plasma glucose in db/db mouse type II diabetes model; assay type: functional
RXR alpha/PPAR gamma = RXR alpha/PPAR gamma (Homo sapiens, UniProt P19793)
RXR alpha/PPAR gamma, sequence (P37231 whole entry, one chain of several): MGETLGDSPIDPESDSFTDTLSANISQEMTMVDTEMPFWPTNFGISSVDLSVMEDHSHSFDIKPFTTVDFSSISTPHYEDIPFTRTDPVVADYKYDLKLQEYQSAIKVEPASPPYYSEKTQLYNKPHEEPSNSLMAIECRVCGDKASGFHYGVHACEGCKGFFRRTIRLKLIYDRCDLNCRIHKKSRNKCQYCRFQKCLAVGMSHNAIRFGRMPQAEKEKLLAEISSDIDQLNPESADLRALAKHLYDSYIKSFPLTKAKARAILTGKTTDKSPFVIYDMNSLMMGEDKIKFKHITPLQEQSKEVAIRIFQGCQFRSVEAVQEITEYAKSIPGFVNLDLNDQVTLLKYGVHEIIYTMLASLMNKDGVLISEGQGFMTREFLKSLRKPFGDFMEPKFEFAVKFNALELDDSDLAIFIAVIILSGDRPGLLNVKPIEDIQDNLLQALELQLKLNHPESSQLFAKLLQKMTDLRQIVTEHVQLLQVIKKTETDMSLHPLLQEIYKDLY
Description: Transcriptional activity against RXR:PPAR-gamma synergy was determined in vitro

[3] = target: T1, Retinoic acid receptor RXR-alpha (Homo sapiens, UniProt P19793)
T1 sequence (P19793 whole entry): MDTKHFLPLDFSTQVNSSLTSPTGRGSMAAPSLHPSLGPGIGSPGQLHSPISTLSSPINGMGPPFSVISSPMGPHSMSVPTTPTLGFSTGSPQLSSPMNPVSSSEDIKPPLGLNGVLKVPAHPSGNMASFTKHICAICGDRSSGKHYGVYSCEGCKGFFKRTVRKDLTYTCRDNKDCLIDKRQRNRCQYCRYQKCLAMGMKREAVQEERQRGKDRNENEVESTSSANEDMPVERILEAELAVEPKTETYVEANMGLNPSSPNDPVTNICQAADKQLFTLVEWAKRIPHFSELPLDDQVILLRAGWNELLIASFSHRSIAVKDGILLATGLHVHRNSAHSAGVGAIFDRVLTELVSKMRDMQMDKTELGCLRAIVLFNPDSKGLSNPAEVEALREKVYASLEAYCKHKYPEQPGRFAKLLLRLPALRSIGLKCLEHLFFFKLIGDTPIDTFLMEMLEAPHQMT
Description: Binding affinity against Retinoic acid receptor RXR-alpha was determined in vitro by using [3H]9-cis-RA as radioligand

[4] = target: T1, Retinoic acid receptor RXR-alpha; assay: Inhibitory activity against Retinoic acid receptor RXR-alpha antagonist was determined in vitro; assay type: functional
Mus musculus [5] = assay: In vivo hypoglycemic activity, as reduced plasma glucose in db/db mouse type II diabetes model; assay type: functional
[6] = RXR:RAR synergy expressed as fold induction
[7] = target: T2, Retinoic acid receptor gamma (Homo sapiens, UniProt P13631); assay: Binding affinity against Retinoic acid receptor gamma was determined in vitro by using [3H]ATRA as radioligand
T2 sequence (P13631 whole entry): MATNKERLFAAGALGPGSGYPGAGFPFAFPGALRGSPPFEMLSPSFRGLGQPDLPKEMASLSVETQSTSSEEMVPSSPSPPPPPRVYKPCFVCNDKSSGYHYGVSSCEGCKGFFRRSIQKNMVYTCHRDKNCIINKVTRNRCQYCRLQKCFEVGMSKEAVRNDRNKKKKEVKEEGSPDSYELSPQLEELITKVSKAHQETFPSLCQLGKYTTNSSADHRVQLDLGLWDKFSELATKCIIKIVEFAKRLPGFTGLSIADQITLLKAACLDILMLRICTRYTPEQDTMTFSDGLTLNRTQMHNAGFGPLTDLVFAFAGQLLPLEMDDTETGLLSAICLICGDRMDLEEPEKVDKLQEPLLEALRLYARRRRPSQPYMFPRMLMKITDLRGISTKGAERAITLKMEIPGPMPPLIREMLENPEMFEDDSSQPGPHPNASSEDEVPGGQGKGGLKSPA

Rattus norvegicus [8] = species: Rattus norvegicus; assay: Effect on T4 levels in male Dawley rats at 24 hr r; assay type: functional
[9] = Transcriptional activation in CV-1 cells expressing RXR and LXR at 1 uM; assay type: functional
[10] = target: T1, Retinoic acid receptor RXR-alpha; remark: listed apart in the source
Description: Inhibition of Retinoic acid receptor RXR-alpha agonist activity in vitro

[11] = target: T3, Retinoic acid receptor RXR-alpha (Homo sapiens) (UniProt P19793)
T3 sequence (whole entry): T1 sequence (P19793 whole entry)

| Compound | Activity (Rattus norvegicus [1]) [mg/dL] | Normalization (Mus musculus [2]) [%] | EC50 (RXR alpha/PPAR gamma) [nM] | Ki [3] [nM] | IC50 [4] [nM] | Activity (Mus musculus [5]) [mg/dL] | Synergy [6] [fold] | Ki [7] [nM] | Activity (Rattus norvegicus [8]) [ng/mL] | Activation [9] [fold] | EC50 [10] [nM] | NB [11] |
| --- | --- | --- | --- | --- | --- | --- | --- | --- | --- | --- | --- | --- |
| CCCCOc1c(\C(C)=C/C=C/C(C)=C/C(=O)O)cc(C(C)C)cc1C(C)C | 63 | 33 | 12 | 4 | 4 | 502 | 1 | 10000 | 72 | 0.6 | – | – |
| CCOc1c(\C(C)=C/C=C/C(C)=C/C(=O)O)cc(C(C)C)cc1C(C)C | – | – | 1 | 2 | – | – | 5 | 10000 | – | – | 2 | – |
| C/C(=C/C=C/C(C)=C/C(=O)O)c1cc(C(C)C)cc(C(C)C)c1OCC(F)(F)F | – | – | 3 | 3 | 6 | – | 2 | 1860 | – | – | – | – |
| CCC(C)(C)c1cc(\C(C)=C/C=C/C(C)=C/C(=O)O)c(OCC(F)F)c(C(C)(C)CC)c1 | – | – | 11 | – | 16 | – | 1 | 10000 | – | – | – | – |
| COc1c(\C(C)=C/C=C/C(C)=C/C(=O)O)cc(C(C)C)cc1C(C)C | – | – | 8 | 1 | – | – | 10 | 10000 | – | – | 2 | – |
| CCOc1c(\C(C)=C/C=C/C(C)=C/C(=O)O)cc(C(C)(C)CC)cc1C(C)(C)CC | – | – | 9 | 2 | 17 | – | 2 | 2500 | – | – | – | – |
| CCCOc1c(\C(C)=C/C=C/C(C)=C/C(=O)O)cc(C(C)(C)C)cc1C(C)(C)C | – | – | 154 | 14 | 43 | – | 1 | 10000 | – | – | – | – |
| C/C(=C/C=C/C(C)=C/C(=O)O)c1cc(C(C)C)cc(C(C)C)c1OCCF | – | – | 4 | 1 | 4 | – | 4 | 10000 | – | – | 7 | – |
| C/C(=C/C=C/C(C)=C/C(=O)O)c1cc(C(C)(C)C)cc(C(C)(C)C)c1OCC(F)(F)F | – | – | 2 | – | 8 | – | 1 | 4030 | – | – | – | – |
| CCCOc1c(\C(C)=C/C=C/C(C)=C/C(=O)O)cc(C(C)(C)CC)cc1C(C)(C)CC | – | – | 19 | 23 | 13 | – | 1 | 10000 | – | – | – | – |
| CN(CCOc1ccc(CC2SC(=O)NC2=O)cc1)c1ccccn1.O=C(O)/C=C\C(=O)O (stereo not drawn) [ROSIGLITAZONE MALEATE] | 78 | 100 | – | – | – | 412 | – | – | 70 | – | – | inactive |
| Cc1cc2c(cc1C1(c3ccc(C(=O)O)cn3)CC1)C(C)(C)CCC2(C)C | 152 | 101 | – | – | – | 400 | 7 | – | 37 | 6.3 | – | – |
| C/C(=C/C=C/C(C)=C/C(=O)O)c1cc(C(C)(C)C)cc(C(C)(C)C)c1OCC(F)F | 75 | 101 | – | – | – | 409 | 2 | 10000 | 70 | 1.2 | – | – |
| CCCOc1c(\C(C)=C/C=C/C(C)=C/C(=O)O)cc(C(C)C)cc1C(C)C | – | – | 5 | 3 | 4 | – | 2 | 10000 | – | – | – | – |
| CCC(C)(C)c1cc(\C(C)=C/C=C/C(C)=C/C(=O)O)c(OC)c(C(C)(C)CC)c1 | – | – | 6 | 2 | – | – | 2 | 10000 | – | – | 506 | – |
| COc1c(\C(C)=C/C=C/C(C)=C/C(=O)O)cc(C(C)(C)C)cc1C(C)(C)C | – | – | 7 | 1 | – | – | 3 | 10000 | – | – | 36 | – |
| CCOc1c(\C(C)=C/C=C/C(C)=C/C(=O)O)cc(C(C)(C)C)cc1C(C)(C)C | 92 | 100 | 2 | 11 | 8 | 412 | 3 | 10000 | 25 | 2.04 | 18 | – |
| C/C(=C/C=C/C(C)=C/C(=O)O)c1cc(C(C)C)cc(C(C)C)c1OCC(F)F | – | – | 10 | 2 | 1 | – | 3 | 10000 | – | – | – | – |
